Here are results for two compounds from patent US9260700B2 (priority 2011, dated 2016).

Test [1] relates to Myrothecium verrucaria bilirubin oxidase (BOD), produced in Pichia pastoris. The settings on record: pH 6.5, with respect to ABTS; cited from earlier work.
Test [2] has as its target Magnaporthe oryzae bilirubin oxidase (BOD), produced in Pichia pastoris, SEQ. ID. No.3 (SEQ. ID. No.1 with additional N-terminal serine) (Pyricularia oryzae, UniProt G4MQU0). It is filed as biochemical. The settings on record: 37° C., citrate-phosphate buffer 50 mM pH 3.6, bilirubin 0 to 100 μM.

As a reminder, the Km is the substrate concentration at which the rate is half of its maximum. As for `CCn1c(=NN=c2sc3cc(S(=O)(=O)O)ccc3n2CC)sc2cc(S(=O)(=O)O)ccc21` [ABTS, 2,2′-azino-bis(3-ethylbenzothiazoline-6-sulphonic acid)], the Km in test [1] was 340 µM.
For orientation: kcat means the maximal rate divided by the concentration of active sites. Regarding conjugated bilirubin, in test [2], the Michaelis constant (Km) was determined as 18.5 µM and the catalytic constant (kcat) came to 28 s⁻¹.
